{"source": "patent US20170326125A1", "about": "“MULTISUBSTITUTED AROMATIC COMPOUNDS AS INHIBITORS OF THROMBIN” (VERSEON CORPORATION, priority 2016, published 2017)", "data": [{"molecular_target": "T1, Human thrombin (Homo sapiens, UniProt P00734)", "T1 construct": "purchased Haematologic Technologies Inc", "test": "Inhibition of the protease activity of thrombin (chromogenic substrate S-2238)", "format": "biochemical", "conditions": "Table C; 3 nM thrombin, 125 μM S-2238, 10 min pre-incubation, RT", "units": {"IC50": "nM"}, "values": [{"smiles": "CC(C)(C)C(=O)n1nc(-c2ccco2)nc1NCc1ccc(F)cc1", "note": "[Cmpd 309, 1-(5-[(4-fluorophenyl)methyl]amino-3-(furan-2-yl)-1H-1,2,4-triazol-1-yl)-2,2-dimethylpropan-1-one]", "IC50": "< 100"}, {"smiles": "COc1ccc(CNc2nc(-c3cccnc3)nn2C(=O)Cc2ccccc2)cc1", "note": "[Cmpd 319, 1-(5-[(4-methoxyphenyl)methyl]amino-3-(pyridin-3-yl)-1H-1,2,4-triazol-1-yl)-2-phenylethan-1-one]", "IC50": "< 100"}, {"smiles": "CC(C)C(=O)n1nc(-c2cccnc2)nc1NCc1ccco1", "note": "[Cmpd 361, 1-5-[(furan-2-ylmethyl)amino]-3-(pyridin-3-yl)-1H-1,2,4-triazol-1-yl-2-methylpropan-1-one]", "IC50": "< 100"}, {"smiles": "CCOc1ccc(NC(=O)c2nc(-n3cnnc3)n[nH]2)cc1", "note": "[Cmpd 393, N-(4-ethoxyphenyl)-3-(4H-1,2,4-triazol-4-yl)-1H-1,2,4-triazole-5-carboxamide]", "IC50": "> 1000"}, {"smiles": "Nc1nc(C(=O)N2CCOCC2)nn1S(=O)(=O)c1ccc(Cl)cc1", "note": "[Cmpd 337, 1-[(4-chlorobenzene)sulfonyl]-3-[(morpholin-4-yl)carbonyl]-1H-1,2,4-triazol-5-amine]", "IC50": "> 1000"}, {"smiles": "O=C(c1ccccc1)n1nc(-c2ccccc2)nc1NCc1ccccc1", "note": "[Cmpd 359, 1-benzoyl-N-benzyl-3-phenyl-1H-1,2,4-triazol-5-amine]", "IC50": "< 100"}, {"smiles": "COC(=O)c1n[nH]c(NC(=O)CCc2ccc(C)cc2)n1", "note": "[Cmpd 388, methyl 5-[3-(4-methylphenyl)propanamido]-1H-1,2,4-triazole-3-carboxylate]", "IC50": "> 1000"}, {"smiles": "COc1ccccc1C(=O)n1nc(-c2ccccc2)nc1NCc1ccco1", "note": "[Cmpd 394, N-(furan-2-ylmethyl)-1-[(2-methoxyphenyl)carbonyl]-3-phenyl-1H-1,2,4-triazol-5-amine]", "IC50": "< 100"}, {"smiles": "O=C(Cc1ccccc1)n1nc(-c2ccco2)nc1NCc1ccccc1", "note": "[Cmpd 346, 1-[5-(benzylamino)-3-(furan-2-yl)-1H-1,2,4-triazol-1-yl]-2-phenylethan-1-one]", "IC50": "< 100"}, {"smiles": "O=C(CCc1ccccc1)n1nc(-c2ccccc2)nc1NCc1ccccc1", "note": "[Cmpd 354, 1-[5-(benzylamino)-3-phenyl-1H-1,2,4-triazol-1-yl]-3-phenylpropan-1-one]", "IC50": "> 1000"}, {"smiles": "COc1ccccc1CNc1nc(-c2cccnc2)nn1C(=O)C(C)C", "note": "[Cmpd 305, 1-(5-[(2-methoxyphenyl)methyl]amino-3-(pyridin-3-yl)-1H-1,2,4-triazol-1-yl)-2-methylpropan-1-one]", "IC50": "> 1000"}, {"smiles": "CC(C)C(=O)n1nc(-c2cccnc2)nc1NCc1ccccc1", "note": "[Cmpd 349, 1-[5-(benzylamino)-3-(pyridin-3-yl)-1H-1,2,4-triazol-1-yl]-2-methylpropan-1-one]", "IC50": "< 100"}]}, {"molecular_target": "T1, Human thrombin", "test": "Inhibition of the protease activity of thrombin (chromogenic substrate S-2238)", "format": "biochemical", "conditions": "inhibition of the protease activity of thrombin", "units": {"IC50": "nM"}, "values": [{"smiles": "O=C(c1cccc2c1OCCO2)n1nc(-c2ccccn2)nc1NCc1ccccc1", "note": "[Cmpd 232, N-benzyl-1-[(2,3-dihydro-1,4-benzodioxin-5-yl)carbonyl]-3-(pyridin-2-yl)-1H-1,2,4-triazol-5-amine]", "IC50": "< 100"}, {"smiles": "O=C(c1cccs1)n1nc(-c2ccncc2)nc1NCc1ccc(F)cc1", "note": "[Cmpd 221, N-[(4-fluorophenyl)methyl]-3-(pyridin-4-yl)-1-[(thiophen-2-yl)carbonyl]-1H-1,2,4-triazol-5-amine]", "IC50": "100 to 1000"}, {"smiles": "COc1ccc(CNc2nc(-c3ccncc3)nn2C(=O)c2ccsc2)cc1", "note": "[Cmpd 230, N-[(4-methoxyphenyl)methyl]-3-(pyridin-4-yl)-1-[(thiophen-3-yl)carbonyl]-1H-1,2,4-triazol-5-amine]", "IC50": "100 to 1000"}, {"smiles": "Cc1ccccc1C(=O)n1nc(-c2ccccc2)nc1NCc1ccc(F)cc1", "note": "[Cmpd 209, N-[(4-fluorophenyl)methyl]-1-[(2-methylphenyl)carbonyl]-3-phenyl-1H-1,2,4-triazol-5-amine]", "IC50": "100 to 1000"}, {"smiles": "CCc1ccccc1C(=O)n1nc(-c2ccccn2)cc1NCc1ccccc1", "note": "[Cmpd 247, N-benzyl-1-[(2-ethylphenyl)carbonyl]-3-(pyridin-2-yl)-1H-pyrazol-5-amine]", "IC50": "> 1000"}, {"smiles": "CC(C)OC(=O)n1nc(-c2cccnc2)nc1NCc1ccc(F)cc1", "note": "[Cmpd 299, propan-2-yl 5-[(4-fluorophenyl)methyl]amino-3-(pyridin-3-yl)-1H-1,2,4-triazole-1-carboxylate]", "IC50": "> 1000"}, {"smiles": "O=C(Nc1ccccc1Cl)n1nc(-c2cccnc2)nc1NCc1ccc(F)cc1", "note": "[Cmpd 200, N-(2-chlorophenyl)-5-[(4-fluorophenyl)methyl]amino-3-(pyridin-3-yl)-1H-1,2,4-triazole-1-carboxamide]", "IC50": "> 1000"}, {"smiles": "CC(=O)c1cn(-c2ccccc2)nc1N(Cc1ccc(F)cc1)C(=O)OC(C)(C)C", "note": "[Cmpd 302, tert-butyl N-(4-acetyl-1-phenyl-1H-pyrazol-3-yl)-N-[(4-fluorophenyl)methyl]carbamate]", "IC50": "> 1000"}, {"smiles": "COc1ccc(CNc2nc(-c3ccccn3)nn2C(=O)c2cccs2)cc1", "note": "[Cmpd 226, N-[(4-methoxyphenyl)methyl]-3-(pyridin-2-yl)-1-[(thiophen-2-yl)carbonyl]-1H-1,2,4-triazol-5-amine]", "IC50": "> 1000"}]}, {"molecular_target": "T1, Human thrombin", "test": "Inhibition of the protease activity of thrombin (chromogenic substrate S-2238)", "format": "biochemical", "conditions": "inhibition of the protease activity of thrombin; class symbols a/b/c", "units": {"IC50": "nM"}, "values": [{"smiles": "CC(C)(C)C(=O)n1nc(-c2ccccn2)nc1NCc1ccccc1", "note": "[Cmpd 137, 1-[5-(benzylamino)-3-(pyridin-2-yl)-1H-1,2,4-triazol-1-yl]-2,2-dimethylpropan-1-one]", "IC50": "< 100"}, {"smiles": "Cc1ccc(C(=O)Nc2nc(C(=O)N3CCOCC3)n[nH]2)cc1", "note": "[Cmpd 185, 4-methyl-N-3-[(morpholin-4-yl)carbonyl]-1H-1,2,4-triazol-5-ylbenzamide]", "IC50": "> 1000"}, {"smiles": "CCCC(=O)n1nc(-c2ccncc2)nc1NCc1ccccc1", "note": "[Cmpd 150, 1-[5-(benzylamino)-3-(pyridin-4-yl)-1H-1,2,4-triazol-1-yl]butan-1-one]", "IC50": "< 100"}, {"smiles": "CNC(=O)n1nc(-c2cccnc2)nc1NCc1ccc(F)cc1", "note": "[Cmpd 19]", "IC50": "> 1000"}, {"smiles": "CCC(=O)n1nc(-c2cccnc2)nc1N", "note": "[Cmpd 155, 1-[5-amino-3-(pyridin-3-yl)-1H-1,2,4-triazol-1-yl]propan-1-one]", "IC50": "> 1000"}, {"smiles": "CCC(=O)n1nc(-c2cccnc2)nc1NCc1ccccc1F", "note": "[Cmpd 9]", "IC50": "100 to 1000"}, {"smiles": "O=C(c1ccccc1Cl)n1nc(-c2ccncc2)nc1NCc1ccc(F)cc1", "note": "[Cmpd 112, 1-[(2-chlorophenyl)carbonyl]-N-[(4-fluorophenyl)methyl]-3-(pyridin-4-yl)-1H-1,2,4-triazol-5-amine]", "IC50": "< 100"}, {"smiles": "COc1ccc(CNc2nc(-c3ccccn3)nn2C(=O)c2ccoc2)cc1", "note": "[Cmpd 125, 1-[(furan-3-yl)carbonyl]-N-[(4-methoxyphenyl)methyl]-3-(pyridin-2-yl)-1H-1,2,4-triazol-5-amine]", "IC50": "100 to 1000"}, {"smiles": "CN(C)C(=O)c1cn(-c2ccccn2)nc1NCc1ccc(F)cc1", "note": "[Cmpd 49]", "IC50": "> 1000"}, {"smiles": "COc1ccc(CNc2nc(-c3ccccn3)nn2C(=O)CC(C)C)cc1", "note": "[Cmpd 90, 1-(5-[(4-methoxyphenyl)methyl]amino-3-(pyridin-2-yl)-1H-1,2,4-triazol-1-yl)-3-methylbutan-1-one]", "IC50": "< 100"}]}, {"system": "malignant breast tumors", "test": "not given", "conditions": "at 4 weeks, treated mice; cited from earlier work", "units": {"reduction in tumor volume": "%"}, "values": [{"smiles": "CCCCCCOC(=O)NC(=N)c1ccc(NCc2nc3cc(C(=O)N(CCC(=O)OCC)c4ccccn4)ccc3n2C)cc1", "note": "[dabigatran etexilate]", "reduction in tumor volume": 50}]}, {"system": "malignant breast tumors", "test": "not given", "conditions": "at 4 weeks; cited from earlier work", "values": [{"smiles": "CCCCCCOC(=O)NC(=N)c1ccc(NCc2nc3cc(C(=O)N(CCC(=O)OCC)c4ccccn4)ccc3n2C)cc1", "note": "[dabigatran etexilate]", "weight loss in treated mice": "no weight loss"}]}, {"system": "malignant breast tumors", "test": "not given", "conditions": "treated mice; cited from earlier work", "values": [{"smiles": "CCCCCCOC(=O)NC(=N)c1ccc(NCc2nc3cc(C(=O)N(CCC(=O)OCC)c4ccccn4)ccc3n2C)cc1", "note": "[dabigatran etexilate]", "reduced tumor cells in the blood and liver micrometastases": "50-60%"}]}]}
